# From patent publication US20090076044A1, “VEGFR INHIBITORS CONTAINING A ZINC BINDING MOIETY” (priority 2007, published 2009)
# Target: T1, human EGFR (Homo sapiens, UniProt P00533)
# T1 construct: human EGFR (His672-Ala1210); purchased Cell Signaling Technologies; host or cells: baculovirus expression system
# Assay: EGFR kinase assay (HTScan EGF Receptor Kinase Assay Kit, DELFIA)
# Format: biochemical
# Settings: 200 μM ATP
# Description: (e) An In Vitro Assay which Determines the Ability of a Test Compound to Inhibit EGFR Kinase.
# The ability of compounds to inhibit receptor kinase (EGFR) activity was assayed using HTScan™ EGF Receptor Kinase Assay Kits (Cell Signaling Technologies, Danvers, Mass.). EGFR tyrosine kinase was obtained as GST-kinase fusion protein which was produced using a baculovirus expression system with a construct expressing human EGFR (His672-Ala1210) (GenBank Accession No. NM_005228) with an amino-terminal GST tag. The protein was purified by one-step affinity chromatography using glutathione-agarose. An anti-phosphotyrosine monoclonal antibody, P-Tyr-100, was used to detect phosphorylation of biotinylated substrate peptides (EGFR), Biotin-PTP1B (Tyr66). Enzymatic activity was tested in 60 mM HEPES, 5 mM MgCl2 5 mM MnCl2 200 μM ATP, 1.25 mM DTT, 3 μM Na3VO4, 1.5 mM peptide, and 50 ng EGF Receptor Kinase. Bound antibody was detected using the DELFIA system (PerkinElmer, Wellesley, Mass.) consisting of DELFIA® Europium-labeled Anti-mouse IgG (PerkinElmer, #AD0124), DELFIA® Enhancement Solution (PerkinElmer, #1244-105), and a DELFIA® Streptavidin coated, 96-well Plate (PerkinElmer, AAAND-0005). Fluorescence was measured on a WALLAC Victor 2 plate reader and reported as relative fluorescence units (RFU). Data were plotted using GraphPad Prism (v4.0a) and IC50's calculated using a sigmoidal dose response curve fitting algorithm.
# Test compounds were dissolved in dimethylsulfoxide (DMSO) to give a 20 mM working stock concentration. Each assay was setup as follows: Added 100 μl of 10 mM ATP to 1.25 ml 6 mM substrate peptide. Diluted the mixture with dH2O to 2.5 ml to make 2×ATP/substrate cocktail ([ATP]=[…], [substrate]=3 mM). Immediately transfer enzyme from −80° C. to ice. Allowed enzyme to thaw on ice. Microcentrifuged briefly at 4° C. to bring liquid to the bottom of the vial. Returned immediately to ice. Added 10 μl of DTT (1.25 mM) to 2.5 ml of 4× HTScan™ Tyrosine Kinase Buffer (240 mM HEPES pH 7.5, 20 mM MgCl2, 20 mM MnCl, 12 mM NaVO3) to make DTT/Kinase buffer. Transfer 1.25 ml of DTT/Kinase buffer to enzyme tube to make 4× reaction cocktail ([enzyme]=4 ng/μL in 4× reaction cocktail). Incubated 12.5 μl of the 4× reaction cocktail with 12.5 μl/well of prediluted compound of interest (usually around 10 μM) for 5 minutes at room temperature. Added 25 μl of 2×ATP/substrate cocktail to 25 μl/well preincubated reaction cocktail/compound. Incubated reaction plate at room temperature for 30 minutes. Added 50 μl/well Stop Buffer (50 mM EDTA, pH 8) to stop the reaction. Transferred 25 μl of each reaction and 75 μl dH2O/well to a 96-well streptavidin-coated plate and incubated at room temperature for 60 minutes. Washed three times with 200 μl/well PBS/T (PBS, 0.05% Tween-20). Diluted primary antibody, Phospho-Tyrosine mAb (P-Tyr-100), 1:1000 in PBS/T with 1% bovine serum albumin (BSA). Added 100 μl/well primary antibody. Incubated at room temperature for 60 minutes. Washed three times with 200 μl/well PBS/T. Diluted Europium labeled anti-mouse IgG 1:500 in PBS/T with 1% BSA. Added 100 μl/well diluted antibody. Incubated at room temperature for 30 minutes. Washed five times with 200 μl/well PBS/T. Added 100 μl/well DELFIA® Enhancement Solution. Incubated at room temperature for 5 minutes. Detected 615 nm fluorescence emission with appropriate Time-Resolved Plate Reader.
# T1 sequence (P00533 672-1210): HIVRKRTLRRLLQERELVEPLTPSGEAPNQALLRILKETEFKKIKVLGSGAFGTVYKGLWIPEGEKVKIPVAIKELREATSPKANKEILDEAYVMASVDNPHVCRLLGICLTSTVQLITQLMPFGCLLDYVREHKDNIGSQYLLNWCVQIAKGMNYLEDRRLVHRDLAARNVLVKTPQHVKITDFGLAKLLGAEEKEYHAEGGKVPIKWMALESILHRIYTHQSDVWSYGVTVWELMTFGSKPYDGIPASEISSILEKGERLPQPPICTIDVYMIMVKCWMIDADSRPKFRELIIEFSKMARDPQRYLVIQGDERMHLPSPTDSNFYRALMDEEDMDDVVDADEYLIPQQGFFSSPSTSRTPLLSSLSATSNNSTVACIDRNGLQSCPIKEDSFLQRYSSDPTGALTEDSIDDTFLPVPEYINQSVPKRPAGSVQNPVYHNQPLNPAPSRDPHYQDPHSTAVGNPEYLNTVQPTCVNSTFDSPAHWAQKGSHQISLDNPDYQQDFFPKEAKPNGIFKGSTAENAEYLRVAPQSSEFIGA
row,SMILES,IC50
1,"COc1cc2ncnc(Nc3ccc4occc4c3)c2cc1OCCCCCCC(=O)NO [Compound 2, 7-(4-(benzofuran-5-ylamino)-7-methoxyquinazolin-6-yloxy)-N-hydroxyheptanamide]",< 100 nM
2,"COc1cc2c(Nc3ccc4[nH]c(C)cc4c3F)ncnc2cc1OCCCCCC(=O)NO [Compound 13, 6-(4-(4-fluoro-2-methyl-1H-indol-5-ylamino)-6-methoxyquinazolin-7-yloxy)-N-hydroxyhexanamide]",100 to 1000 nM
3,"COc1cc2c(Nc3ccc4[nH]c(C)cc4c3F)ncnc2cc1OCCCCCCC(=O)NO [Compound 14, 7-(4-(4-fluoro-2-methyl-1H-indol-5-ylamino)-6-methoxy-quinazolin-7-yloxy)-N-hydroxyheptanamide]",< 100 nM
4,"COc1cc2c(Oc3ccc4[nH]c(C)cc4c3F)ncnc2cc1OCCCCCCC(=O)NO [Compound 11, 7-(4-(4-fluoro-2-methyl-1H-indol-5-yloxy)-6-methoxyquinazolin-7-yloxy)-N-hydroxyheptanamide]",1000 to 10000 nM
5,"Cc1cc2c(F)c(Nc3ncnc4cc(OCCCN5CCCC5)c(OCCCCC(=O)NO)cc34)ccc2[nH]1 [Compound 18, 5-(4-(4-fluoro-2-methyl-1H-indol-5-ylamino)-7-(3-(pyrrolidin-1-yl)propoxy)quinazolin-6-yloxy)-N-hydroxypentanamide]",100 to 1000 nM
6,"Cc1cc2c(F)c(Oc3ncnc4cc(OCCCN5CCCC5)c(OCCCCCC(=O)NO)cc34)ccc2[nH]1 [Compound 16, 6-(4-(4-fluoro-2-methyl-1H-indol-5-yloxy)-7-(3-(pyrrolidin-1-yl)propoxy)quinazolin-6-yloxy)-N-hydroxyhexanamide]",1000 to 10000 nM
7,"Cc1cc2c(F)c(Nc3ncnc4cc(OCCCN5CCCC5)c(OCCCCCC(=O)NO)cc34)ccc2[nH]1 [Compound 19, 6-(4-(4-Fluoro-2-methyl-1H-indol-5-ylamino)-7-(3-(pyrrolidin-1-yl)propoxy)quinazolin-6-yloxy)-N-hydroxyhexanamide]",< 100 nM
8,"COc1cc2c(Oc3ccc4[nH]c(C)cc4c3F)ncnc2cc1OCCCCCC(=O)NO [Compound 10, 6-(4-(4-fluoro-2-methyl-1H-indol-5-yloxy)-6-methoxyquinazolin-7-yloxy)-N-hydroxyhexanamide]",100 to 1000 nM
9,"Cc1cc2c(F)c(Nc3ncnc4cc(OCCCN5CCCC5)c(OCCCCCCC(=O)NO)cc34)ccc2[nH]1 [Compound 20, 7-(4-(4-Fluoro-2-methyl-1H-indol-5-ylamino)-7-(3-(pyrrolidin-1-yl)propoxy)quinazolin-6-yloxy)-N-hydroxyheptanamide]",1000 to 10000 nM
10,Cc1cc2c(F)c(Oc3ncnc4cc(OCCCN5CCCC5)c(OCCCCCCC(=O)NO)cc34)ccc2[nH]1 [Compound 17],1000 to 10000 nM
